Assay results taken from patent US20100144872A1, “New Methylenebisphenyl Compounds Useful in the Treatment of Inflammation” (Biolipox AB, priority 2007, published 2010).

What follows are compounds tested against T1, Recombinant human LTC4 synthase (Homo sapiens, UniProt Q16873) (assay: LTC4 synthase assay (conversion of LTA4 methyl ester to LTC4 methyl ester, HPLC)). Conditions: biological test described above; PBS pH 7.4 with 5 mM GSH, substrate LTA4 methyl ester.
T1 construct: made in house; host or cells: Pichia pastoris ('Piccia pastoralis' [sic])
T1 sequence (Q16873 1-150): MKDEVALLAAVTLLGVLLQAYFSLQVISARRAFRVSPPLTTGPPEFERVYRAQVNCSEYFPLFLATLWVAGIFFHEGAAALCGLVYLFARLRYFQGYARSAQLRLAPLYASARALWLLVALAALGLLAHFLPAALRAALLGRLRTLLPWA
Assay type: biochemical
Procedure: In the assay LTC4 synthase catalyses the reaction where the substrate LTA4 methyl ester is converted to LTC4 methyl ester. Recombinant human LTC4 synthase is expressed in Piccia pastoralis and the purified enzyme is dissolved in 25 mM Tris-buffer pH 7.8 and stored at −20° C. The assay is performed in phosphate buffered saline (PBS) pH 7.4, supplemented with 5 mM glutathione (GSH). The reaction is terminated by addition of acetonitrile/MeOH/acetic acid (50/50/1). The assay is performed at it in 96-well plates. Analysis of the formed LTC4 methyl ester is performed with reversed phase HPLC (Waters 2795 utilizing an Onyx Monolithic C18 column). The mobile phase consists of acetonitrile/MeOH/H2O (32.5/30/37.5) with 1% acetic acid pH adjusted with NH3 to pH 5.6, and absorbance measured at 280 nm with a Waters 2487 UV-detector.
The following is added chronologically to each well: • 1. 50 μl assay buffer, PBS with 5 mM GSH. • 2. 0.5 μl inhibitor in DMSO. • 3. 2 μl LTC4 synthase in PBS. The total protein concentration in this solution is 0.025 mg/ml. Incubation of the plate at room temperature for 10 minutes. • 4. 0.5 μl LTA4 methyl ester. Incubation of the plate at it for 1 min. • 5. 50 μl stop solution. 80 μl of the incubation mixture is analysed with HPLC.

Compound	IC50
Nc1ccc(Cc2ccc(Nc3ccc(F)c(Cl)c3)c(C(=O)O)c2)cc1C(=O)O [Example 6, 2-amino-5-(3-carboxy-4-(3-chloro-4-fluorophenylamino)benzyl)benzoic acid]	5700 nM
Nc1ccc(Cc2ccc(Nc3ccc(Br)cc3F)c(C(=O)O)c2)cc1C(=O)O [Example 8, 2-amino-5-(4-(4-bromo-2-fluorophenyl-amino)-3-carboxybenzyl)benzoic acid]	740 nM
O=C(O)c1ccccc1Nc1ccc(Cc2ccc(Nc3ccccc3C(=O)O)c(C(=O)O)c2)cc1C(=O)O [Example 9, 5,5′-methylenebis(2-(2-carboxyphenyl-amino)benzoic acid)]	3400 nM
Nc1ccc(Cc2ccc(Nc3ccc(F)cc3)c(C(=O)O)c2)cc1C(=O)O [Example 12, 2-amino-5-(3-carboxy-4-(4-fluoro-phenylamino)benzyl)benzoic acid]	2800 nM
CC(C)Oc1ccc(Nc2ccc(Cc3ccc(N)c(C(=O)O)c3)cc2C(=O)O)cc1 [Example 27, 2-amino-5-(3-carboxy-4-(4-isopropoxy-phenylamino)benzyl)benzoic acid]	6410 nM
COc1cccc(NC(=O)Nc2ccc(Cc3ccc(NC(=O)Nc4cccc(OC)c4)c(C(=O)O)c3)cc2C(=O)O)c1 [Example 55, 5,5′-methylenebis-(2-(3-(3-methoxyphenyl)-ureido)benzoic acid)]	1800 nM
O=C(Nc1ccccc1F)Nc1ccc(Cc2ccc(NC(=O)Nc3ccccc3F)c(C(=O)O)c2)cc1C(=O)O [Example 57, 5,5′-methylenebis-(2-(3-(2-fluorophenyl)-ureido)benzoic acid)]	4000 nM
O=C(Nc1ccc(Cc2ccc(NC(=O)Nc3c(Cl)cccc3Cl)c(C(=O)O)c2)cc1C(=O)O)Nc1c(Cl)cccc1Cl [Example 62, 5,5′-methylenebis-(2-(3-(2,6-dichlorophenyl)-ureido)benzoic acid)]	5800 nM
CC(=O)Nc1ccc(S(=O)(=O)Nc2ccc(Cc3ccc(NS(=O)(=O)c4ccc(NC(C)=O)c(Cl)c4)c(C(=O)O)c3)cc2C(=O)O)cc1Cl [Example 67, 5,5′-methylenebis(2-(4-acetamido-3-chlorophenylsulfonamido)benzoic acid)]	2800 nM

Results, then the compound that gave them:

IC50	Compound
1300 nM	O=C(O)c1cc(Cc2ccc(NS(=O)(=O)c3ccccc3C(F)(F)F)c(C(=O)O)c2)ccc1NS(=O)(=O)c1ccccc1C(F)(F)F [Example 69, 5,5′-methylenebis(2-(2-(trifluoromethyl)phenylsulfonamido)benzoic acid)]
700 nM	O=C(O)c1cc(Cc2ccc(NS(=O)(=O)c3cc(C(F)(F)F)cc(C(F)(F)F)c3)c(C(=O)O)c2)ccc1NS(=O)(=O)c1cc(C(F)(F)F)cc(C(F)(F)F)c1 [Example 74, 5,5′-methylenebis(2-(3,5-bis(trifluoromethyl)-phenylsulfonamido)benzoic acid)]
3400 nM	Cc1ccc(CNc2ccc(Cc3ccc(NCc4ccc(C)cc4)c(C(=O)O)c3)cc2C(=O)O)cc1 [Example 89, 5-(3-Carboxy-4-(4-methyl-benzylamino)-benzyl)-2-(4-methyl-benzylamino)-benzoic acid]
2300 nM	O=C(O)c1cc(Cc2ccc(NCc3cccc(OCc4ccccc4)c3)c(C(=O)O)c2)ccc1NCc1cccc(OCc2ccccc2)c1 [Example 93]
